Counter-ions that a name gives are not always drawn. Like-named read-outs stand apart in the source and are kept apart here.
How the values were obtained:
[1] = molecular target: rat Fatty Acid Amide Hydrolase (FAAH) (Rattus norvegicus (Rat), UniProt P97612); experiment: FAAH in vitro fluorescence assay (AAMCA hydrolysis), rat enzyme; type: biochemical; conditions: for inhibition at 10 µM: read-out: rFAAH % inhibition at 10 uM; for inhibition at 0.1 µM: read-out: rFAAH % inhibition at 100 nM, 100 nM (tier I)
Sequence of rat Fatty Acid Amide Hydrolase (FAAH) (P97612 30-579): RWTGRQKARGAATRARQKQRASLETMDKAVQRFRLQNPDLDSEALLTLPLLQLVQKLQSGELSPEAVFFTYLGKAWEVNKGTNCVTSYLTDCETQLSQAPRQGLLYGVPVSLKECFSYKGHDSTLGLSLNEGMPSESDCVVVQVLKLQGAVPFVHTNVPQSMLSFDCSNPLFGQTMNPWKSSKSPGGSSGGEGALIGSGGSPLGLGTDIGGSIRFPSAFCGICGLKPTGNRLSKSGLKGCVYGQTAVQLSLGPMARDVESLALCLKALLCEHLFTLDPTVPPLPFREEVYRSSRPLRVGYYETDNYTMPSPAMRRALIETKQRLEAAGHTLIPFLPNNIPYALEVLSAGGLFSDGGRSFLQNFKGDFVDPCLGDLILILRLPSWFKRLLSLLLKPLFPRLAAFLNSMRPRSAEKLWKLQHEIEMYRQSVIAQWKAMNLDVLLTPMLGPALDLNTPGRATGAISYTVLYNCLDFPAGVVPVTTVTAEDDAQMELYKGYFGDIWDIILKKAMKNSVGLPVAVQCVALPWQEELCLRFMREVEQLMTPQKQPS
Protocol: Material and Reagents: All reagents were purchased from Sigma-Aldrich unless specified. […] Chaperone protein groEL-groES in pGRO7 plasmid (Takara Bio Inc, Japan) was co-expressed with Fatty Acid Amide Hydrolase (FAAH) to improve solubility of the protein expressed in E coli. […] Briefly, the bacterial cultures in Luria Broth (2 L) were induced with arabinose (2 mM) and Isopropyl (β-D-1-thiogalactopyranoside, IPTG (1 mM), for 20 h at room temperature. The cultures were centrifuged at 1200×g for 10 min and the cell pellet was resuspended in 100 mL buffer containing of 20 mM NaPi (pH 7.4), 100 mM NaCl, Benzonase (500u), Aprotinin (1 μg/mL) and Leupeptin (1 μg/mL). Cells were lyzed by sonication (Amp 20%, Pulse 15 s×15, on ice) and the cell debris removed by centrifugation at 5000×g for 20 min. The supernatant was enriched via ultracentrifugation at 100,000×g for 1 h and the cell pellet was resuspended in 16 mL buffer containing 20 mM NaPi (pH 7.8), 500 mM NaCl, 1% Triton X-100. The resuspended cell extract was subjected to ultra-centrifugation at 100,000×g for 1 h and the enriched supernatant was used in the in vitro assay. All protein extraction steps were carried out on ice or at 4° C.
The assay was carried out in 200 μL volume in a 96-well black polystyrene plate (Greiner Bio-one, Germany). Each reaction consisted of human Fatty Acid Amide Hydrolase (FAAH) protein and 10 μM AAMCA in assay buffer containing 50 mM HEPES, 1 mM EDTA and 0.1% BSA, pH 7.4. The reaction was incubated with 2 μL of varying concentrations of inhibitor in DMSO (final concentration of DMSO 1%) with shaking for 1 min and monitored for increase in fluorescence in kinetic mode for 50 min. […] Rate of reaction as a function of the concentration of the inhibitor was used to determine the IC50 of the inhibitors. Data was analyzed using GraphPad Prism 5 (GraphPad Software Inc., San Diego, Calif.). The activity of the compounds for rat Fatty Acid Amide Hydrolase (FAAH) was evaluated as described above with rat Fatty Acid Amide Hydrolase (FAAH) protein and 10 μM AAMCA substrate.

[2] = molecular target: human Fatty Acid Amide Hydrolase (FAAH) (Homo sapiens (Human), UniProt O00519); experiment: biochemical; conditions: for inhibition at 0.1 µM: read-out: hFAAH % inhibition at 100 nM, 100 nM (tier I)
Sequence of human Fatty Acid Amide Hydrolase (FAAH) (O00519 30-579): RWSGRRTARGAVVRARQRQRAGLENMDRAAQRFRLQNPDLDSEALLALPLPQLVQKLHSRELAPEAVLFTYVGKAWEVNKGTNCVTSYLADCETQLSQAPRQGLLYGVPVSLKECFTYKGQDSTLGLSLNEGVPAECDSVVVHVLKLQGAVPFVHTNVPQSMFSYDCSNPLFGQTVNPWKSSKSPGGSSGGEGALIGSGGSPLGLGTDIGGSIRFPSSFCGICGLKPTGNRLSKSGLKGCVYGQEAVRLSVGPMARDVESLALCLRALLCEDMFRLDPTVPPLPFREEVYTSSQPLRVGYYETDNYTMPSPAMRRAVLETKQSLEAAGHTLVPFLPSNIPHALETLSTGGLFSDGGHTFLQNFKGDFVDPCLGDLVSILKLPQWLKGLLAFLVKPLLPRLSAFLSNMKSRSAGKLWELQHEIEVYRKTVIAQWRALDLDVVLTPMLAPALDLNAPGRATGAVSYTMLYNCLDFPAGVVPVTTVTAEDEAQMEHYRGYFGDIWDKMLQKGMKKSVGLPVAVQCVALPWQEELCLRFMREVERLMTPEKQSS

[3] = human FAAH, read-out: hFAAH IC50

Compound | IC50 ([2]; read-out: hFAAH IC50) [nM] | IC50 [2, 3] [nM] | other results
Nc1ccc(C(=O)NC2CCC(=Cc3cccc(Oc4ccc(C(F)(F)F)cn4)c3)CC2)cn1 (single isomer, unassigned; (+)) [Example 20.A-3, (+)-6-Amino-N-[4-[[3-[[5-(trifluoromethyl)-2-pyridyl]oxy]phenyl]methylene]cyclohexyl]pyridine-3-carboxamide] | 361 |  | inhibition at 10 µM ([1]; rat FAAH): 70%
O=C(NC1CCC(=Cc2cccc(Oc3ccc(C(F)(F)F)cn3)c2)CC1)c1cncc(O)c1 (stereo not drawn) [Example 2.C-4, 5-Hydroxy-N-[4-[[3-[[5-(trifluoromethyl)-2-pyridyl]oxy]phenyl]methylene]cyclohexyl]pyridine-3-carboxamide] |  | 4 | IC50 ([1]; rat FAAH, read-out: rFAAH IC50): 21 nM
O=C(NC1CCC(=Cc2cccc(Oc3ccc(C(F)(F)F)cn3)c2)CC1)c1cccnc1F (stereo not drawn) [Example 2.A-26, 2-Fluoro-N-[4-[[3-[[5-(trifluoromethyl)-2-pyridyl]oxy]phenyl]methylene]cyclohexyl]pyridine-3-carboxamide] | 5 |  | IC50 ([1]; rat FAAH, read-out: rFAAH IC50): 84 nM
Cc1cnn(-c2ccc(C(=O)NC3CCC(=Cc4cccc(Oc5ccc(C(F)(F)F)cn5)c4)CC3)cn2)c1 (stereo not drawn) [Example 2.B-6, 6-(4-Methylpyrazol-1-yl)-N-[4-[[3-[[5-(trifluoromethyl)-2-pyridyl]oxy]phenyl]methylene]cyclohexyl]pyridine-3-carboxamide] |  | 7 | IC50 ([1]; rat FAAH, read-out: rFAAH IC50): 21 nM
O=C(NC1CCC(=Cc2cccc(Oc3ccc(C(F)(F)F)cn3)c2)CC1)c1c[nH]nc1C(F)(F)F (single isomer, unassigned; (+)) [Example 20.A-7, (+)-3-(Trifluoromethyl)-N-[4-[[3-[[5-(trifluoromethyl)-2-pyridyl]oxy]phenyl]methylene]cyclohexyl]-1H-pyrazole-4-carboxamide] | 67 |  | inhibition at 10 µM ([1]; rat FAAH): 85%
O=C(NC1CCC(=Cc2cccc(Oc3ccc(C(F)(F)F)cn3)c2)CC1)c1cccnc1 (single isomer, unassigned; (-)) [Example 20.A-2, (−)-N-[4-[[3-[[5-(Trifluoromethyl)-2-pyridyl]oxy]phenyl]methylene]cyclohexyl]pyridine-3-carboxamide] |  |  | IC50 ([2]; hFAAH IC50): 0.7 nM
O=C(NC1CCC(=Cc2cccc(Oc3ccc(C(F)(F)F)cn3)c2)CC1)c1ccc(-n2ccc(C(=O)O)n2)nc1 (stereo not drawn) [Example 8.A-5, 1-[5-[[4-[[3-[[5-(Trifluoromethyl)-2-pyridyl]oxy]phenyl]methylene]cyclohexyl]carbamoyl]-2-pyridyl]pyrazole-3-carboxylic acid] |  |  | inhibition at 0.1 µM ([1]; rat FAAH): 55%
O=C(NC1CCC(=Cc2cccc(Oc3ccc(C(F)(F)F)cn3)c2)CC1)c1c[nH]c2ccccc12 (single isomer, unassigned; (-)) [Example 20.A-18, (−)-N-[4-[[3-[[5-(trifluoromethyl)-2-pyridyl]oxy]phenyl]methylene]cyclohexyl]-1H-indole-3-carboxamide] |  | 4 | IC50 [1]: 35 nM
Cc1cncc(C(=O)NC2CCC(=Cc3cccc(Oc4ccc(C(F)(F)F)cn4)c3)CC2)c1 (stereo not drawn) [Example 2.A-30, 5-Methyl-N-[4-[[3-[[5-(trifluoromethyl)-2-pyridyl]oxy]phenyl]methylene]cyclohexyl]pyridine-3-carboxamide] | 5 |  | IC50 ([1]; rat FAAH, read-out: rFAAH IC50): 14 nM
Nc1ncccc1C(=O)NC1CCC(=Cc2cccc(Oc3ccc(C(F)(F)F)cn3)c2)CC1 (stereo not drawn) [Example 2.C-5, 2-Amino-N-[4-[[3-[[5-(trifluoromethyl)-2-pyridyl]oxy]phenyl]methylene]cyclohexyl]pyridine-3-carboxamide] |  | 37 | 
O=C(NC1CCC(=Cc2cccc(Oc3ccc(C(F)(F)F)cn3)c2)CC1)c1cccnn1 (single isomer, unassigned; (-)) [Example 20.A-16, (−)-N-[4-[[3-[[5-(trifluoromethyl)-2-pyridyl]oxy]phenyl]methylene]cyclohexyl]pyridazine-3-carboxamide] | 4 |  | IC50 ([1]; rat FAAH, read-out: rFAAH IC50): 115 nM
O=C(NC1CCC(=Cc2cccc(Oc3ccc(C(F)(F)F)cn3)c2)CC1)c1cncnc1 (single isomer, unassigned; (-)) [Example 20.A-20, (−)-N-[4-[[3-[[5-(Trifluoromethyl)-2-pyridyl]oxy]phenyl]methylene]cyclohexyl]pyrimidine-5-carboxamide] | 0.8 |  | 
O=C(NC1CCC(=Cc2cccc(Oc3ccc(C(F)(F)F)cn3)c2)CC1)c1ccc(O)nc1 (stereo not drawn) [Example 2.C-3, 6-Hydroxy-N-[4-[[3-[[5-(trifluoromethyl)-2-pyridyl]oxy]phenyl]methylene]cyclohexyl]pyridine-3-carboxamide] |  | 19 | 
Nc1ncc(C(=O)NC2CCC(=Cc3cccc(Oc4ccc(C(F)(F)F)cn4)c3)CC2)cn1 (single isomer, unassigned; (+)) [Example 20.A-9] | 40 |  | 
O=C(O)Cn1cc(C(=O)NC2CCC(=Cc3cccc(Oc4ccc(C(F)(F)F)cn4)c3)CC2)cn1 (stereo not drawn) [Example 8.A-2, 2-[4-[[4-[[3-[[5-(Trifluoromethyl)-2-pyridyl]oxy]phenyl]methylene]cyclohexyl]carbamoyl]pyrazol-1-yl]acetic acid] |  |  | inhibition at 0.1 µM ([2]; human FAAH): 40%
O=C(NC1CCC(=Cc2cccc(Oc3ccc(C(F)(F)F)cn3)c2)CC1)c1cccnc1 (single isomer, unassigned; (+)) [Example 20.A-1, (+)-N-[4-[[3-[[5-(Trifluoromethyl)-2-pyridyl]oxy]phenyl]methylene]cyclohexyl]pyridine-3-carboxamide] |  |  | inhibition at 10 µM ([1]; rat FAAH): 60%
O=C(Nc1cccnn1)C1CCC(=Cc2cccc(Oc3ccc(C(F)(F)F)cn3)c2)CC1 (stereo not drawn) [Example 1.A-1, N-Pyridazin-3-yl-4-[[3-[[5-(trifluoromethyl)-2-pyridyl]oxy]phenyl]methylene]cyclohexanecarboxamide] |  | 17 | 
Cc1nc(Oc2cccc(C=C3CCC(NC(=O)c4cnc(N)nc4)CC3)c2)ccc1Cl (single isomer, unassigned; (+)) [Example 20.A-21, (+)-2-Amino-N-[4-[[3-[(5-chloro-6-methyl-2-pyridyl)oxy]phenyl]methylene]cyclohexyl]pyrimidine-5-carboxamide] |  | 9 | 
O=C(NC1CCC(=Cc2cccc(Oc3ccc(C(F)(F)F)cn3)c2)CC1)c1cccnc1 (stereo not drawn) [Example 2.1, N-[4-[[3-[[5-(Trifluoromethyl)-2-pyridyl]oxy]phenyl]methylene]cyclohexyl]pyridine-3-carboxamide] |  |  | IC50 ([2]; hFAAH IC50): 2 nM
O=C(NC1CCC(=Cc2cccc(Oc3ccc(C(F)(F)F)cn3)c2)CC1)c1nc2cccnc2s1 [Example 2.D-3, N-[4-[[3-[[5-(Trifluoromethyl)-2-pyridyl]oxy]phenyl]methylene]cyclohexyl]thiazolo[5,4-b]pyridine-2-carboxamide] |  |  | inhibition at 0.1 µM ([1]; rat FAAH): 38%
Cc1nc(Oc2cccc(C=C3CCC(NC(=O)c4cnc(N)nc4)CC3)c2)ccc1Cl (single isomer, unassigned; (-)) [Example 20.A-22, (−)-2-Amino-N-[4-[[3-[(5-chloro-6-methyl-2-pyridyl)oxy]phenyl]methylene]cyclohexyl]pyrimidine-5-carboxamide] |  | 1.1 | 
Cc1cc(C(=O)NC2CCC(=Cc3cccc(Oc4ccc(C(F)(F)F)cn4)c3)CC2)cnc1N (single isomer, unassigned; (+)) [Example 20.A-5, (+)-6-Amino-5-methyl-N-[4-[[3-[[5-(trifluoromethyl)-2-pyridyl]oxy]phenyl]methylene]cyclohexyl]pyridine-3-carboxamide] |  | 247 | 
O=C(NC1CCC(=Cc2cccc(Oc3ccc(C(F)(F)F)cn3)c2)CC1)c1cncnc1 (single isomer, unassigned; (+)) [Example 20.A-19, (+)-N-[4-[[3-[[5-(trifluoromethyl)-2-pyridyl]oxy]phenyl]methylene]cyclohexyl]pyrimidine-5-carboxamide] | 14.3 |  | 
Cc1[nH]nc(C(F)(F)F)c1C(=O)NC1CCC(=Cc2cccc(Oc3ccc(C(F)(F)F)cn3)c2)CC1 (stereo not drawn) [Example 2.A-36, 5-Methyl-3-(trifluoromethyl)-N-[4-[[3-[[5-(trifluoromethyl)-2-pyridyl]oxy]phenyl]methylene]cyclohexyl]-1H-pyrazole-4-carboxamide] |  |  | inhibition at 0.1 µM ([2]; human FAAH): 50%
O=C(Nc1cccnc1)C1CCC(=Cc2cccc(Oc3ccc(C(F)(F)F)cn3)c2)CC1 (stereo not drawn) [Example 1.2, N-(3-Pyridyl)-4-[[3-[[5-(trifluoromethyl)-2-pyridyl]oxy]phenyl]-methylene]cyclohexanecarboxamide hydrochloride] |  |  | IC50 ([2]; hFAAH IC50): 17 nM

From patent publication US9682953B2, “Amide compounds, compositions and applications thereof” (Advinus Therapeutics Limited, priority 2011, dated 2017)
